Values after ≈ are worked out from the molar mass of the structure shown. “Also recorded” adds a separate entry of the source.
Experiments:
[1] = solubility limit in feeding solution
[2] = tested on: Drosophila melanogaster; assay: whole plant or invertebrate; settings: for mortality in CAFE assay: 200 μM VU041, 700 μM VU937; for reduction of total volume of sucrose solution ingested: 100 μM fluphenazine, 200 μM VU041
Description: A capillary feeding assay (CAFE) was used to quantify the volume of sucrose solution consumed over a period of time; it was performed essentially as described in W. W. Ja, G. B. Carvalho, E. M. Mak, N. N. de la Rosa, A. Y. Fang, J. C. Liong, T. Brummel, S. Benzer, Prandiology of Drosophila and the CAFE assay. Proceedings of the National Academy of Sciences of the United States of America 104, 8253-8256 (2007); published online EpubMay 15 (10.1073/pnas.0702726104). […] One adult fly was placed into a 2 mL glass vial with a screw lid that was pierced with a glass microcapillary tube having a truncated 200-0 pipette tip. The microcapillary tubes contained 5% (wt/vol) sucrose solution with a 5 μl mineral oil overlay to minimize evaporation. […] Concentrations of 100 μM dopamine and 100 μM fluphenazine were used to determine the influence of those agents on fly feeding. […] All dead flies were excluded from all time points of the study regardless of the time of death. Mean (n>25) values are shown in all figure panels, depicting total consumption.
Times spent feeding in Kir1 and GFP genetic knockdown studies were compared to control values for each day using one-way ANOVA with a Dunns multiple comparisons post-test. Statistical significance for all studies was P<0.05.

[3] = tested on: Aphis gossypii; assay: aphid feeding on treated cotton leaves, electrophenegraph technique; type: in vivo; settings: barium chloride at 300 micromolar
Description: FIGS. 14(A) and (B) depict measurements of aphid (Aphis gossypi) feeding on cotton leaves, as measured through the electrophenegraph technique; on control leaves and on leaves treated with the Kir inhibitor barium, respectively.
In aphids, a specific Kir channel blocker (barium chloride at 300 micromolar) was coated onto leaf tissue, and the feeding behavior of the adult aphid was analyzed through the classical electrophenegraph technique.

[4] = target: AnKir1 (Anopheles gambiae, UniProt A0A075M2J8); assay: whole-cell patch clamp electrophysiology; type: cell-based
Description: Patch electrodes were pulled from silanized 1.5 mm outer diameter borosilicate microhematocrit tubes using a P-1000 Flaming/Brown micropipette puller (Sutter Instrument, Novato Calif., USA). Electrode resistance ranged from 2-4 MΩ. Whole-cell currents were recorded under voltage-clamp conditions using an Axopatch 200B amplifier (Molecular Devices, Sunnyvale, Calif.). Electrical connections to the amplifier used Ag/AgCl wires and 3 M KCl/agar bridges. Electrophysiological data were collected at 5 kHz and filtered at 1 kHz. Data acquisition and analysis were performed using pClamp 9.2 software (Axon Instruments).
Transiently transfected HEK-293T cells expressing AnKir1 were voltage-clamped in the whole-cell configuration of the patch clamp technique. The extracellular bath solution contained (in mM): 135 NaCl, 5 KCl, 2 CaCl2), 1 MgCl2, 5 glucose, 10 HEPES free acid, pH 7.4, 290 mOsm/kg H2O. The pipette solution contained (in mM): 135 KCl, 2 MgCl2, 1 EGTA, 10 HEPES free acid, 2 Na2ATP (Roche, Indianapolis, Ind.), pH 7.3, 275 mOsm. Cells were voltage clamped at −75 mV, stepped to −120 mV for 200 msec, and then ramped to 120 mV at a rate of 2.4 mV/msec. Concentration-response curves (CRCs) were constructed by measuring the effects of increasing doses of inhibitors on AnKir1 currents at −120 mV. All recordings were made at room temperature (20-23° C.).

[5] = tested on: An. gambiae; assay: blood meal processing, abdominal diameter; type: in vivo, Anopheles gambiae; settings: topical, ED30 dose of VU041 after engorgement
Description: Blood meal processing studies were performed with similar methods, with the exception that An. gambiae were blood-fed on anesthetized mice. All methods were carried out in accordance with Vanderbilt Institutional Animal Care and Use Committee approval. Upon completion of blood feeding, female mosquitoes with fully distended abdomens were selected, and 200 nL of compound at a non-lethal concentration (1 μg/mg) was applied directly to the abdomen. Any mosquito that died during the 24 h observation period was excluded from the analysis. Images of the abdomens were acquired at 0, 2, 5, 8, and 24 h through the dorsal cuticle; abdomens were measured at the widest point. Images were captured using bright-field illumination on a Nikon 90i light microscope (Nikon Corp., Tokyo, Japan) connected to a Photometrics CoolSNAP HQ2 high-sensitivity monochrome CCD camera (Roper Scientific, Ottobrunn, Germany). Digital images were acquired using Nikon Advanced Research NIS-Elements software. Mean abdominal diameters were compared using one-way ANOVA with a Tukey's post-hoc analysis (Prism 6, Graphpad Software, La Jolla, Calif.).

[6] = tested on: Ae. aegypti; assay: topical toxicity bioassay in adult female Ae. aegypti; type: in vivo, Aedes aegypti; settings: 24 h
Description: Topical toxicity bioassays in adult female Ae. aegypti (LVP and PR strains) were performed. […] A solvent-only treatment was included in each experiment as a negative control. Treated mosquitoes were transferred to small cages with access to 10% sucrose and held under rearing conditions for 24 h. The efficacy of a dose was measured as the percentage of treated mosquitoes in a cage that were flightless or dead at 24 h. Four to eight replicates of 10 mosquitoes were performed per dose. The ED50 values were determined using a non-linear curve fit analysis (log [inhibitor] vs. response variable-slope) in Prism 6 (Graphpad Software).
Six replicate experiments of 10 mosquitoes each were performed.

[7] = tested on: An. gambiae; assay: topical toxicity bioassay in adult female An. gambiae; type: in vivo, Anopheles gambiae; settings: for ED50 (95% confidence limits), Akron Strain / ED50 (95% confidence limits), G3 Strain: topical, synergists 500 ng/insect four hours prior
Description: Topical toxicity bioassays were performed on non-blood-fed adult female mosquitoes. The mosquitoes were chilled on ice for 1-3 minutes, during which 200 nL of compound (dissolved in 95% ethanol) was applied onto the abdomen of each insect with a handheld Hamilton® micro-applicator. […] […] The three resulting ED50 values were averaged. An ethanol-only treatment was included in each experiment as a negative control. Treated mosquitoes were transferred to small cages with access to 10% sucrose and held under rearing conditions for 24 h. Mortality was recorded at 24 h.

[8] = whole-cell patch clamp, HEK-293T cells

Sequence of AnKir1 (A0A075M2J8 1-555): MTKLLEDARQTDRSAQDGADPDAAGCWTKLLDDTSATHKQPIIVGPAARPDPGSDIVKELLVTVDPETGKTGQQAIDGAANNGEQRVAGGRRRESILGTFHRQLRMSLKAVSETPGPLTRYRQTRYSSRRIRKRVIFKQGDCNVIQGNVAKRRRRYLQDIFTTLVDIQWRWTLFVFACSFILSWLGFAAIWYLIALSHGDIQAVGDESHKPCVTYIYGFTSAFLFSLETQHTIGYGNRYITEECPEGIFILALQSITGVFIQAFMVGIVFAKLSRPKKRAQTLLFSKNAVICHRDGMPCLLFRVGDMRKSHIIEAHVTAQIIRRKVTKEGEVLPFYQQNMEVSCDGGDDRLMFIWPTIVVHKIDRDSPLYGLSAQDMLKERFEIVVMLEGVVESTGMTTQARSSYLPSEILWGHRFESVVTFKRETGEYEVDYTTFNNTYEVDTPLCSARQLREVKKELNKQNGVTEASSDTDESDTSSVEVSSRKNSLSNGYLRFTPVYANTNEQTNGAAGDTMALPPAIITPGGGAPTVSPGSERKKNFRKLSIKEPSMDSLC

O=C(Cn1nc(C(F)(F)F)c2c1CCCC2)N1CCCc2ccccc21 [VU041, 1-(3,4-dihydroquinolin-1(2H)-yl)-2-(3-(trifluoromethyl)-4,5,6,7-tetrahydro-1H-indazol-1-yl)ethan-1-one]
solubility ([1]; 5% (wt/vol) sucrose solution, water): 200 µM (≈ 72.7 µg/mL)
mortality in CAFE assay [2]: approximately 30%
reduction of total volume of sucrose solution ingested ([2]; 1 day PE): 2.6 fold
reduction of total volume of sucrose solution ingested ([2]; 2 days PE): 2.7 fold
reduction of total volume of sucrose solution ingested ([2]; 3 days PE): 2.9 fold
reduction of total volume of sucrose solution ingested ([2]; 4 days PE): 3.2 fold
EC50 ([2]; Drosophila melanogaster, 96 h, read-out: EC50 of reduction of sucrose consumption): 68 µM
maximal reduction of volume of sucrose consumption ([2]; concentration-dependent): up to 3.2 fold
feeding phases (egestion, salivation, ingestion) [3]: No salivation was observed; also recorded: essentially completely inhibited egestion, salivation, and ingestion
Hill coefficient value ([4]; whole-cell patch clamp): 1.3
IC50 [4, 8]: 0.496 µM
abdominal diameter over 24 h after blood feeding [5]: did not thereafter change much
approximate ED50 ([6]; topical, LVP strain): ~3.24 μg/mg mosquito
enhancement of toxicity by inhibition of CYP450s in the AKRON strain over the G3 strain ([7]; Akron strain): 3 fold
enhancement of efficacy by PBO pretreatment ([7]; G3 strain): ~3 fold
enhancement of toxicity by DEF pre-treatment ([7]; G3 strain): did not enhance toxicity
ED50 (95% confidence limits), Akron Strain ([7]; 24 h, Akron strain): 2.8 (2.1-4.1) A μg/mg
ED50 (95% confidence limits), G3 Strain ([7]; 24 h, G3 strain): 1.8 (0.9-3.1) A μg/mg

O=C(Cn1nc(C(F)(F)F)c2c1CCCC2)NC1CCC1 [VU937]
solubility limit ([1]; 5% sucrose solution): 700 µM (≈ 211 µg/mL)
mortality in CAFE assay [2]: less than 10%
feeding phases (egestion, salivation, ingestion) [3]: fed normally; also recorded: did not affect feeding
activity less than VU041 ([4]; patch clamp): 60 fold
IC50 ([4]; whole-cell patch clamp): 29.7 µM
IC50 [4, 8]: 29.7 µM
abdominal diameter over 24 h after blood feeding [5]: decreased significantly over 24 h
topical toxicity ([6]; adult females): not toxic
topical toxicity ([7]; adult females, 24 h): not toxic
ED50 (95% confidence limits), Akron Strain ([7]; 24 h, Akron strain): >10 µg/mg
ED50 (95% confidence limits), G3 Strain ([7]; 24 h, G3 strain): >10 µg/mg

— patent US11632953B2, “Method for controlling hematophagous or sap-feeding arthropods” (Board of Supervisors of Louisiana State University and …, priority 2016, dated 2023)
